Patent US20160235724A1, “TETRAHYDROPYRIDOETHERS FOR THE TREATMENT OF STARGARDT'S DISEASE” (KATAIRO GMBH, priority 2013, published 2016)
Several values for one entry are separate records, joined by “and”; a condition that tells them apart may be missing. Equal entries are not always repeated. One block for each molecule: values may come before it.

Assays:
[1] = tested on: lipofuscin in RPE cells of ABCA4−/− mice; experiment: Quantification and ultrastructural (TEM) analysis of lipofuscin in RPE after single intravitreal injection in ABCA4−/− mice (Stargardt's disease model); format: in vivo, mouse; details: single intravitreal injection 0.32 mg
Experimental: Pigmented ABCA4^−/− mice (129S4/SvJae-ABCA4^tm1Ght) were provided by Gabriel Travis (David Geffen School of Medicine, University of California, Los Angeles, Calif.) and bred in the Biomedical Sciences division, University of Oxford. All experiments were conducted in female mice. The animals were kept in a 12 hour light (<100 lux)/dark cycle, with food and water available ad libitum. All animal breeding and experimental procedures were performed under approval of local and national ethical and legal authorities, and were conducted in compliance with the ARVO statement for the Use of Animals in Ophthalmic and Vision Research.
(§1) Two μl PBS containing a total amount of 0.32 mg Soraprazan in suspension were injected into the vitreous of three 12 months old ABCA4^−/− mice.
(§2) The eyes were enucleated after four weeks. Two untreated aged matched ABCA4^−/− mice served as controls. After enucleation, the eyes were cleaned of orbital tissue and, after removal of the cornea, were fixed overnight at 4° C. in 2% glutaraldehyde in 0.1 M cacodylate buffer (pH 7.4) containing 100 mM sucrose. After washing with cacodylate buffer, areas of interest in flat mount preparations were excised and post-fixed with 1% osmium tetroxide in 0.1 M cacodylate buffer at room temperature for 1 h. In some parts of the eyes osmication was omitted which preserved the autofluorescence of lipofuscin. Dehydration was then started by a series of incubations in 30, 50, and 70% ethanol. The samples were stained with saturated uranyl acetate. Dehydration was continued by incubations in 70, 80, 95, 100% ethanol and propylene oxide. The samples were then embedded in Epon (SPI-Pon™812 Epoxy Embedding Kit, SPI supplies, West Chester, Pa.). For light and fluorescence microscopy, staining with osmium and uranylacetate was omitted.
Ultrathin Epon sections (70 nm) from WT control eyes and ABCA4^−/− eyes were post-stained with lead citrate and investigated under a transmission electron microscope (TEM; Model 902 A, Carl Zeiss, Oberkochen, Germany). For statistical analysis, the areas occupied by lipofuscin granules were quantified in 8-10 micrographs from each group. […] For lipofuscin quantification, image analysis software (iTEM, Olympus Soft imaging Solutions, Munster, Germany) was used. For each image, the total area of RPE cytoplasm was determined. […] The area fraction of lipofuscin/melanolipofuscin is expressed as area in μm^2 occupied by lipofuscin per 100 μm^2 RPE cytoplasm.
Statistical significance for the ultrastructural evaluation of lipofuscin granules was determined by using Dunnett's test and the JMP9 statistical program (SAS; Heidelberg, Germany). […]

[2] = tested on: lipofuscin in RPE cells of ABCA4−/− mice; experiment: Fluorescence microscopy of autofluorescent lipofuscin granules in RPE semithin sections of ABCA4−/− mice; format: in vivo, mouse; details: 12-month-old ABCA4−/− mice, 4 weeks after single intravitreal injection of 0.32 mg, qualitative
Experimental: as §1
as §2, with “The samples were stained with saturated uranyl acetate. Dehydration was continued by incubations in 70, 80, 95, 100% ethanol and propylene oxide. The samples were then embedded in Epon (SPI-Pon™812 Epoxy Embedding Kit, SPI supplies, West Chester, Pa.).” left out
Autofluorescent lipofuscin and melanolipofuscin granules were photographed in semi thin sections using a fluorescence microscope (Zeiss Axioplan2 imaging, excitation 370/36 nm, emission 575/15 nm, 40× objective) connected to a personal computer equipped with a CDD camera. Since the granules could not clearly be separated from each other and lipofuscin cannot be differentiated from melanolipofuscin, the quantification of lipofuscin granules was performed using electron microscopy.

[3] = tested on: Cynomolgus monkey; experiment: 52-week oral administration in the Cynomolgus monkey, conventional histopathology of the eye; format: in vivo
Experimental: Soraprazan was administrated in oral application of 6, 12 and 24 mg/kg/day for 52 weeks in the Cynomolgus monkey.
Some monkeys from the control and the high-dose group were subjected to a recovery period of 3 months.

[4] = tested on: RPE cells; details: known from the literature; cited from earlier work

Structure (SMILES): CCO[C@@H]1c2ccn3c(C)c(C)nc3c2N[C@H](c2ccccc2)[C@H]1O [Example 3, (7R,8R,9R)-2,3-Dimethyl-7-ethoxy-8-hydroxy-9-phenyl-7,8,9,10-tetrahydro-imidazo [1,2-h][1,7]naphthyridine]
melting point: 188 to 190 °C

Structure (SMILES): CCO[C@H]1c2ccn3c(C)c(C)nc3c2N[C@H](c2ccccc2)[C@H]1O [Example 4, (7S,8R,9R)-2,3-Dimethyl-7-ethoxy-8-hydroxy-9-phenyl-7,8,9,10-tetrahydro-imidazo [1,2-h][1,7]naphthyridine]
melting point: 135 to 137 °C

Structure (SMILES): Cc1nc2c3c(ccn2c1C)[C@H](OC(C)C)[C@H](O)[C@@H](c1ccccc1)N3 [Example 7, (7S,8R,9R)-2,3-Dimethyl-8-hydroxy-9-phenyl-7-(2-propoxy)-7,8,9,10-tetrahydro-imidazo [1,2-h][1,7]naphthyridine]
melting point: 168 to 169 °C

Structure (SMILES): CO[C@@H]1[C@@H](c2ccccc2)Nc2c(ccn3c(C)c(C)nc23)[C@H]1OC [Example 8, (7R,8R,9R)-2,3-Dimethyl-7,8-dimethoxy-9-phenyl-7,8,9,10-tetrahydro-imidazo[1,2-h][1,7]naphthyridine]
melting point: 155 to 156 °C

Structure (SMILES): COCCO[C@@H]1c2ccn3c(C)c(C)nc3c2N[C@H](c2ccccc2)[C@H]1O [Soraprazan, (7R,8R,9R)-2,3-Dimethyl-8-hydroxy-7-(2-methoxyethoxy)-9-phenyl-7,8,9,10-tetrahydro-imidazo [1,2-h][1,7]naphthyridine]
percent area occupied by lipofuscin in RPE cell cytoplasm (median) ([1]; 12-month-old ABCA4−/− mice, eyes enucleated after four weeks, untreated median 12.92%, p<0.0001, Dunnett's test): 6.42%
electron-opaque lipofuscin granules in RPE (TEM) compared to controls ([1]; 12-month-old ABCA4−/− mice, four weeks): significantly reduced in number
appearance of retinas of treated animals ([1]; ABCA4−/− mice): removing lipofuscin. Retinas of treated animals made a healthy
lipofuscin content of RPE cells after treatment (study overview result) ([1]; ABCA4−/− mice, 44 retinal areas, p < 0.0001): significantly reduced and 1. Lipofuscin is removed from ABCA4^−/− mouse RPE cells after
lipofuscin in RPE under fluorescent light compared to untreated mice [2]: lipofuscin was reduced
conventional histopathology findings ([3]; oral 6 mg/kg/day for 52 weeks): no alterations
conventional histopathology findings ([3]; oral 12 mg/kg/day for 52 weeks): no alterations
monkeys showing migration of individual macrophages beneath the RPE and/or into the subretinal space ([3]; oral 24 mg/kg/day for 52 weeks): Three out of 12
photoreceptors facing the depigmented RPE ([3]; oral 24 mg/kg/day for 52 weeks): stayed healthy
monkeys with depigmentation of RPE cells ([3]; oral 24 mg/kg/day for 52 weeks, among the 3 monkeys with macrophage migration): Two of these 3
removal of "natural" lipofuscin from RPE cells [4]: remove such lipofuscin from RPE cells

Other lines, results leading:

melting point: 161 to 162 °C
Structure (SMILES): CO[C@H]1c2ccn3c(C)c(C)nc3c2N[C@@H](c2ccccc2)[C@@H]1O [Example 1B, (7S,8S,9S)-2,3-Dimethyl-8-hydroxy-7-methoxy-9-phenyl-7,8,9,10-tetrahydro-imidazo [1,2-h][1,7] naphthyridine]

melting point: 108 to 110 °C
Structure (SMILES): CO[C@H]1c2ccn3c(C)c(C)nc3c2N[C@H](c2ccccc2)[C@H]1O [Example 2A, (7S,8R,9R)-2,3-Dimethyl-8-hydroxy-7-methoxy-9-phenyl-7,8,9,10-tetrahydro-imidazo [1,2-h][1,7]naphthyridine]

melting point: 171 to 172 °C
Structure (SMILES): CO[C@@H]1c2ccn3c(C)c(C)nc3c2N[C@@H](c2ccccc2)[C@@H]1O [Example 2B, (7R,8S,9S)-2,3-Dimethyl-8-hydroxy-7-methoxy-9-phenyl-7,8,9,10-tetrahydro-imidazo[1,2-h][1,7]naphthyridine]
